The values that follow come from patent publication US11365185B2, “Lysophosphatidic acid receptor 1 (LPAR1) inhibitor compounds” (Eli Lilly and Company, priority 2017, dated 2022).

Data set [1] deals with T1, LPAR1 (Homo sapiens (Human), UniProt Q92633). In words: LPAR1 Calcium Flux Assay. The format is cell-based. Conditions: U937 cells overexpressing human LPAR1, LPA-stimulated calcium, FLIPR. As to the method:
LPAR1 Calcium Flux Assays
A cDNA encoding the human LPAR1 receptor is synthesized and cloned into pDNA3 expression plasmid. The plasmid is transfected in U937 cells using Lipofectamine 2000 (Invitrogen Corp., USA). Clones stably expressing human LPAR1 are selected using puromycin and identified as cells that show Ca-influx in response to LPA.
U937 cells overexpressing human LPAR1 are seeded at 100,000 cells per well in a 96-well fibronectin (10 ug/ml) coated plate in 60 μl of assay buffer (HBSS containing 20 mM HEPES and 0.2% BSA) and then incubated for 60 minutes. Then 50 μl of a calcium indicator dye (Fluo-4 NW, Molecular Probes) are added to each well and incubation continued for 30 minutes at 37° C. and then 30 minutes at room temperature. 50 μl of test compounds in 4% DMSO are added to the cells and incubation continued at room temperature for 40 minutes. Cells are the stimulated by the addition of 50 μl of 128 nM LPA and intracellular calcium is measured using the FLIPR TETRA (Molecular Devices). IC50 values are determined using “Genedata Screener” analysis tool.
Target sequence in this assay (Q92633 whole entry): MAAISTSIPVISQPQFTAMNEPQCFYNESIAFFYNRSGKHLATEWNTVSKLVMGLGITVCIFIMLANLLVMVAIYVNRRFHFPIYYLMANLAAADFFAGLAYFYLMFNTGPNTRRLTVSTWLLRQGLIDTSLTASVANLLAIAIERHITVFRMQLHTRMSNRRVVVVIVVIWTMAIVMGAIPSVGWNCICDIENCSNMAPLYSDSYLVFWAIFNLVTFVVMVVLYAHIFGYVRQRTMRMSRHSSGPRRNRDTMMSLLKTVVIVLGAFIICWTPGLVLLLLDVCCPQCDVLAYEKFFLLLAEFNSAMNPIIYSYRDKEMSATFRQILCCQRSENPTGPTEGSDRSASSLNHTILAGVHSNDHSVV
For orientation: A change in cytosolic calcium serves as a functional read-out for many receptors and channels.

A further data set has as its target human LPAR3 (Homo sapiens (Human), UniProt Q9UBY5). The data set is described as follows: LPAR3 Calcium Flux Assay. The format is cell-based. Conditions: U2OS cells overexpressing human LPAR3, LPA-stimulated calcium, FLIPR. As to the method: LPAR3 Calcium Flux Assays
A cDNA encoding the human LPAR3 receptor is synthesized and cloned into pDNA3 expression plasmid. The plasmid is transfected in U2OS cells using Lipofectamine 2000 (Invitrogen Corp., USA). Clones stably expressing human LPAR3 are selected using neomycin and identified as cells that show Ca-influx in response to LPA.
U2OS cells overexpressing human LPAR3 are seeded at 20,000-40,000 cells per well in a 96-well poly-D-lysine coated plate one day before the assay. Prior to the assay, the cells are washed once with assay buffer (HBSS containing 20 mM HEPES and 0.2% BSA) and then incubated in 50 μl of assay buffer for 60 minutes. Then 50 μl of a calcium indicator dye (Fluo-4 NW, Molecular Probes) are added to each well and incubation is continued for 30 minutes at 37° C. and then 30 minutes at room temperature. 50 μl of test compounds in 4% DMSO are added to the cells and incubation continued at room temperature for 40 minutes. Cells are stimulated by the addition of 50 μl of 128 nM LPA and intracellular calcium is measured using the FLIPR TETRA (Molecular Devices). IC50 values are determined using “Genedata Screener” analysis tool.

The target in data set [2] is T1, LPAR1. In words: LPAR1 Membrane Binding Assay. Conditions: membrane containing LPAR1, radio labeled ligand, SPA. The protocol:
LPAR1 Membrane Binding Assay
The ability of a compound to inhibit binding of a ligand (1-(4′-(4-(((benzyloxy)carbonyl)amino)-3-methylisoxazol-5-yl)-[1,1′-biphenyl]-4-yl)cyclopropane-1-carboxylic acid) to LPAR1 is assessed via a membrane binding assay. Membrane containing LPAR1 was purchased from Cerep (Cat. No. 290312RB). Prior to the assay, membrane is thawed and homogenized for 15 seconds. 50 μl of test compounds and 50 μl of radio labeled ligand are added to the 96-well plates and then 50 of μl membrane (50-400 ug/ml) are added. Next, 50 μl of SPA PVT WGA beads are added (1-5 mg/ml) and the plates are sealed and incubated at room temperate for 5 minutes. Radio activity is measured by Beta Counter and IC50 values are determined using “Genedata Screener” analysis tool.
Target sequence in this assay (Q92633 whole entry, species assumed): as the sequence (Q92633 whole entry) above

Data set [3] relates to Human hepatic stellate cell line LX-2. In words: Calcium Influx of Human Hepatic Stellate Cells (LX-2). Conditions: LX-2 cells, LPA-stimulated calcium influx. The format is cell-based. The protocol:
Calcium Influx of Human Hepatic Stellate Cells (LX-2)
Human hepatic stellate cell line LX-2 is purchased from EMD Millpore. LX-2 cells are seeded at 20,000-40,000 cells per well in a 96-well poly-D-lysine coated plate one day before the assay. Prior to the assay, the cells are washed once with assay buffer (HBSS containing 20 mM HEPES and 0.2% BSA) and then incubated in 50 μl of assay buffer for 60 minutes. Then 50 μl of a calcium indicator dye (Fluo-4 NW, Molecular Probes) are added to each well and incubation is continued for 30 minutes at 37° C. and then 30 minutes at room temperature. 50 μl of test compounds in 4% DMSO are added to the cells and incubation is continued at room temperature for 40 minutes. Cells are stimulated by the addition of 50 μl of 128 nM LPA and intracellular calcium is measured using the FLIPR TETRA (Molecular Devices). IC50 values are determined using “Genedata Screener” analysis tool.

A short description of data set [4]: Rodent Pharmacokinetics - Mouse PK. The format is in vivo, C57 mice. The conditions noted are these: C57, plasma; for AUC / bioavailability: 10 mg/kg; for AUC: PO; for clearance / Vd: intravenous; for Vd: read-out: Vdss; for bioavailability: oral. The protocol: (§1) The pharmacokinetics of compounds are determined in male Sprague-Dawley rats or C57 mice. The rats are administered a single 1 mg/kg intravenous (IV) and 10 mg/kg oral gavage (PO) dose. The vehicles are 20% Captisol w/v in 25 mM NaPO4 buffer, pH8 and 1% hydroxyethylcellulose/0.25% polysorbate 80 and 0.05% antifoam 1510-US in distilled water for the intravenous and oral dose, respectively. Blood samples are collected at predose (PO only), 0.08 (IV only), 0.25, 0.5, 1, 2, 4, 8, 12 and 24 h after initiation of compound administration. Blood samples are centrifuged to obtain plasma. The plasma samples are analyzed by LC-MS/MS to determine compound concentrations.

Data set [5] in a line: Rodent Pharmacokinetics - Rat PK. It counts as in vivo, male Sprague-Dawley rats. Conditions: male, Sprague-Dawley, plasma; for AUC / bioavailability: 10 mg/kg; for AUC: PO; for clearance / Vd: intravenous, 1 mg/kg; for Vd: read-out: Vdss; for bioavailability: oral. As to the method:
as §1

The next data set relates to Male C57B1/6 mice. The data set is described as follows: Diet-Induced Liver Inflammation and Fibrosis. The format is in vivo. Conditions: for Peri-sinusoidal Fibrosis Score: vehicle 1.37; for Inflammation Score: vehicle 2.7. As to the method:
Diet-Induced Liver Inflammation and Fibrosis
Male C57B1/6 mice (7-8 weeks old) are given free access to food and water. Mice are fed with high fat, high sucrose and high cholesterol food for 196 days. Then animals will be administrated orally with vehicle or test compounds once daily for 77 days at a volume of 5 ml/kg. Body weight and food intake will be measured twice a week, after two weeks, BW and FI will be measured once a week. At the end of study, animals will be euthanized by CO2 suffocation. Liver samples of the animals are collected and fixed in 10% NBF. Liver samples are prepared after 20 to 24 hours of fixation in 10% NBF and prepared into FFPE blocks. Slide sections of FFPE blocks are processed with H&E and Masson's Trichrome staining. Histopathology interpretation and results will be provided by qualified pathologists. The data are plotted using Graphpad prism and statistical differences between groups determined.

For a further data set, the system named is Male C57BL/6J mice. In words: Mouse Intravenous LPA-Induced Histamine and Eicosanoids Release. The format is in vivo. The conditions noted are these: 10 mg/kg orally 2 hours before intravenous LPA; plasma. As to the method:
Mouse Intravenous LPA-Induced Histamine and Eicosanoids Release
A mouse intravenous LPA-induced histamine and eicosanoids release model is utilized to determine the in vivo potency of the compounds of the present invention. Male C57BL/6J mice weighing 20-25 grams are given free access to standard mouse chow and water. LPA is dissolved in 0.1% fatty acid-free bovine serum albumin to generate solution at 2 mg/mL. Test compounds are formulated in 0.5% methyl cellulose plus 0.25% Tween 80 to generate required concentrations one day before the experiment and stored in a refrigerator until use. Animals are dosed orally with test compounds at 10 ml/kg 2 hours before the intravenous LPA dosing (300 ug per mouse) with 30 gauge needles through tail vain. Two hours after LPA dosing the animals are euthanized by CO2 suffocate. Blood will be collected by cardiac puncture. Blood samples are kept on ice for more than 5 minutes and centrifuged at 4000 rpm for 10 minutes at 4° C. to generate supernatant plasma. The plasma histamine, methylimidazol acetic acid and eicosanoids levels are measured by LC/MS.

In data set [6] the target is T1, LPAR1. The data set is described as follows: LPAR1 Cytokine Release Assay (IL-6, MG63 cells). The format is cell-based. The conditions noted are these: LPA-stimulated IL-6 levels, 24 hours, ELISA. The protocol: LPAR1 Cytokine Release Assay
Human MG63 cells are seeded at 20,000 per well in 96-well plates and incubated in MEM medium. One day later, the cell culture medium is removed and 60 μl of test compounds are added to each well. 30 minutes later, 60 μl of LPA (10 μM) are added to each well. 24 hours later, 50 μl of supernatant from each well are taken and IL-6 levels are measure by using ELISA kit (R&D Systems, Cat. No. D6050). IC50 values are determined using “Genedata Screener” analysis tool.
Target sequence in this assay (Q92633 whole entry): as above
On the technique in general: In an ELISA, binding on a coated surface is turned into a signal by an enzyme label.

Setting [7] is: 10 mg/kg orally once daily for 77 days.
Where [8] appears, read: 30 mg/kg orally once daily for 77 days.

Marks after values point to notes of the source that are not given here.

human LPAR3, sequence (Q9UBY5 whole entry): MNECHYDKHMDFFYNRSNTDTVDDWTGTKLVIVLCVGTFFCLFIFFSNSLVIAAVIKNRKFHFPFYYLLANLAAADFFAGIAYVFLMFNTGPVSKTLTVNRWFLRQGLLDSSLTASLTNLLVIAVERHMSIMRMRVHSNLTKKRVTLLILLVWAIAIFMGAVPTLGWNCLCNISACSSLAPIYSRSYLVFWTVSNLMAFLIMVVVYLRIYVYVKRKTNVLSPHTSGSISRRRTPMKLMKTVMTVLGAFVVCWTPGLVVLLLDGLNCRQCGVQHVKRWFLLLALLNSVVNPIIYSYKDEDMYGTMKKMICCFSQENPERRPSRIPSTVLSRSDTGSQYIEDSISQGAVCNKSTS

`CC(C)c1cncc(Nc2c(-c3ccc(-c4ccc(C5(C(=O)O)CC5)cc4)cn3)cnn2C)n1` [Example 27, 1-[4-[6-[5-[(6-isopropylpyrazin-2-yl)amino]-1-methyl-pyrazol-4-yl]-3-pyridyl]phenyl]cyclopropanecarboxylic Acid]: at LPAR1 [1], the IC50 (in general, the concentration that inhibits the measured activity by half) is 20.6 nM. The IC50 on human LPAR3 came to 1980 nM. Moreover, the affinity at LPAR1 [2], expressed as Ki, was 15.3 nM. The IC50 in data set [3] stood at 8.88 nM. In [4], the AUC (commonly the area under the concentration-time curve, a measure of exposure) turned out to be 38.4 µM·h; the clearance (in general, the rate of elimination divided by the concentration) came out at 3.5 mL/min/kg; the Vd worked out at 0.953 L/kg; the bioavailability (commonly the share of a dose that reaches the circulation, judged against a reference dose that is usually intravenous) worked out at 40.8%. Further, in data set [5], the AUC was 80.1 µM·h, the clearance came to 4.23 mL/min/kg, the Vd was 0.799 L/kg and the bioavailability worked out at 93.6%. Besides, in the data set on Male C57B1/6 mice (setting [7]), the “Peri-sinusoidal Fibrosis Score” value was determined as 1.30 and the “Inflammation Score” value is on record as 2.1*. In the data set on Male C57B1/6 mice (setting [8]), the “Peri-sinusoidal Fibrosis Score” value was 1.07^$ and the “Inflammation Score” value is 2.3^#. Moreover, in the data set with Male C57BL/6J mice, the “% of inhibition, histamine” value is 89.5 ± 1.6% and the “% of inhibition, methylimidazoleacetic acid” value worked out at 100.8 ± 3.4%.

As for `CC(C)c1cncc(Nc2c(-c3ccc(-c4ccc(C5(C(=O)O)CC5)cc4)cc3)cnn2C)n1` [Example 26, 1-[4-[4-[5-[(6-isopropylpyrazin-2-yl)amino]-1-methyl-pyrazol-4-yl]phenyl]phenyl]cyclopropanecarboxylic Acid], the IC50 at LPAR1 [1] was 23.6 nM. For the same molecule, the IC50 at human LPAR3 was over 10000 nM. Besides, the Ki – broadly, the equilibrium dissociation constant of an inhibitor or competing ligand from its target – at LPAR1 [2] amounted to 18.8 nM. Further, in [3], the IC50 was found to be 13.1 nM. The same molecule came in with an IC50 on LPAR1 [6] of 4.79 nM. In addition, in data set [4], the area under the curve (AUC) was 9.06 µM·h, the clearance was found to be 2 mL/min/kg, the Vd is 2 L/kg and the bioavailability stood at 30%.

Consider `CC(C)Oc1cncc(Nc2c(-c3ccc(-c4ccc(C5(C(=O)O)CC5)cc4)cn3)cnn2C)n1.Cl` [Example 20, 1-[4-[6-[5-[(6-isopropoxypyrazin-2-yl)amino]-1-methyl-pyrazol-4-yl]-3-pyridyl]phenyl]cyclopropanecarboxylic Acid; Hydrochloride], for which the IC50 on LPAR1 [1] was determined as 29.3 nM. Also, the IC50 on human LPAR3 stood at 341 nM. At LPAR1 [2], the Ki stood at 12.7 nM. The half-inhibitory concentration (IC50) in [3] stood at 12 nM. Besides, the IC50 on LPAR1 [6] stood at 3.95 nM. Moreover, in data set [5], the exposure (AUC) is 70.9 µM·h, the clearance turned out to be 2.94 mL/min/kg, the Vd was 0.721 L/kg and the bioavailability stood at 57.5%. Also, in the data set on Male C57BL/6J mice, the “% of inhibition, 9,10-cis epoxide of linoleic acid” value came out at 83.4 ± 6.4%; the “% of inhibition, 12-hydroxyeicosatetraenoic acid” value is listed as 68.8 ± 6.0%; the “% of inhibition, methylimidazoleacetic acid” value is on record as 103.5 ± 0.6%.

`Cn1ncc(-c2ccc(-c3ccc(C4(C(=O)O)CC4)cc3)cn2)c1Nc1cncc(C(F)(F)F)n1` [Example 21, 1-[4-[6-[1-methyl-5-[[6-(trifluoromethyl)pyrazin-2-yl]amino]pyrazol-4-yl]-3-pyridyl]phenyl]cyclopropanecarboxylic Acid]: the IC50 on LPAR1 [1] worked out at 36.3 nM. Besides, the IC50 on human LPAR3 is 1610 nM. The Ki at LPAR1 [2] was 27.6 nM. Moreover, the IC50 in data set [3] was found to be 14.1 nM. For the same molecule, at LPAR1 [6], half-maximal inhibition (IC50) was put at 8.81 nM. In [4], the AUC was found to be 16.3 µM·h, the clearance turned out to be 4.99 mL/min/kg, the Vd was found to be 1.46 L/kg and the bioavailability worked out at 24.8%.
